Test results taken from ChEMBL document CHEMBL6115028, “An Amazing 30-Year Journey around the DABO Family: A Medicinal Chemistry Lesson on a Versatile Class of Non-nucleoside HIV-1 Reverse Transcriptase Inhibitors” (J Med Chem, 2025).
Each block holds one compound with its values, some of them ahead of it.

Columns and labels:
[1] = test system: Human immunodeficiency virus 1; test: Antiviral activity against HIV-1 NL4-3 infected in human MT2 cells assessed as reduction in viral replication assessed as inhibition of viral growth incubated for 72 hrs by ELISA; assay type: functional, organism-based; details: Human immunodeficiency virus 1, NL4-3, MT2, 72 h
[2] = test system: Human immunodeficiency virus 1; test: Antiviral activity against HIV1 IIIB infected in human MT4 cells assessed as reduction in virus-induced cytopathic effect incubated for 4 days by MTT assay; assay type: functional, organism-based; details: Human immunodeficiency virus 1, IIIB, MT4, 96 h
[3] = Selectivity index, ratio of CC50 for human MT4 cells to EC50 for antiviral activity against HIV1 infected in human MT4 cells; assay type: toxicity, cell-based; details: read-out: Ratio CC50/EC50
[4] = Cytotoxicity against african green monkey Vero cells assessed as reduction in cell viability measured after 72 hrs by MTT assay; assay type: toxicity, cell-based; details: chlorocebus sabaeus
[5] = test system: Human immunodeficiency virus 1; test: Antiviral activity against HIV-1 IIIB infected in human C8166 cells assessed as reduction in virus -induced cytopathic effect measured after 48 hrs by CellTiter-Glo Luminescent cell viability assay; assay type: functional, organism-based; details: Human immunodeficiency virus 1, IIIB, C8166, 48 h
[6] = Selectivity index, ratio of CC50 for cytotoxicity against human MT2 cells to EC50 for antiviral activity against HIV-1 IIIB infected in human MT2 cells; assay type: toxicity, cell-based; details: read-out: Ratio CC50/EC50
[7] = test system: C8166; test: Cytotoxicity against human C8166 cells assessed as reduction in cell viability; assay type: functional
[8] = test system: Human immunodeficiency virus 1; test: Antiviral activity against HIV-1 IIIB infected in human C8166 cells; assay type: functional, organism-based; details: Human immunodeficiency virus 1, IIIB
[9] = test system: MT4; test: Cytotoxicity against human MT4 cells assessed as reduction in cell growth incubated for 3 days by CellTiter-Glo luminescent assay; assay type: functional; details: MT4, 72 h, time 3 day
[10] = test system: Human immunodeficiency virus 2; test: Antiviral activity against HIV-2 ROD infected in human MT4 cells assessed as virus-induced cytopathic effect incubated for 5 days by MTT assay; assay type: functional, organism-based; details: Human immunodeficiency virus 2, ROD, MT4, 120 h
[11] = test system: Human immunodeficiency virus 1; test: Antiviral activity against wild type HIV-1 NL4-3 infected in human MT4 cells assessed as reduction in viral replication measured for 72 hrs by ELISA analysis; assay type: functional, organism-based; details: Human immunodeficiency virus 1, NL4-3, MT4, 72 h
[12] = test system: Human immunodeficiency virus 1; test: Antiviral activity against HIV-1 NL4-3 harboring infected K103N mutant infected in human MT4 cells assessed as reduction in viral replication; assay type: functional, organism-based; details: Human immunodeficiency virus 1, NL4-3, MT4
[13] = test system: MT4; test: Cytotoxicity against human MT4 cells assessed as reduction in cell growth after 5 days by MTT assay; assay type: functional; details: MT4, 120 h, time 5 day
[14] = test system: Human immunodeficiency virus 1; test: Antiviral activity against wild-type HIV-1 IIIB infected in human MT4 cells assessed as reduction in virus-induced cytopathic effect incubated for 5 days by MTT assay; assay type: functional, organism-based; details: Human immunodeficiency virus 1, IIIB, MT4, 120 h
[15] = test system: MT4; test: Cytotoxicity against human MT4 cells; assay type: functional
[16] = test system: Human immunodeficiency virus 1; test: Antiviral activity against wild type HIV-1 NL4-3 infected in human MT4 cells assessed as reduction in viral replication; assay type: functional, organism-based; details: Human immunodeficiency virus 1, NL4-3, MT4; read-out: EC50
[17] = test system: Human immunodeficiency virus 1; test: Antiviral activity against HIV-1 NL4-3 harboring infected Y181C mutant infected in human MT4 cells assessed as reduction in viral replication; assay type: functional, organism-based; details: Human immunodeficiency virus 1, NL4-3, MT4

Structure (SMILES): CCC(C)Sc1nc(O)c(C)c(Cc2ccccc2)n1 (configuration not stated)
EC50 [1]: 200 nM

Structure (SMILES): Cc1c(O)nc(SC2CCCCC2)nc1Cc1ccccc1
EC50 [2]: 600 nM | selectivity ratio [3]: > 530

Structure (SMILES): CCC(C)Sc1nc(O)cc(Cc2ccccc2)n1 (configuration not stated)
EC50 [1]: 80 nM

Structure (SMILES): CCC(C)Sc1nc(O)cc(Cc2cccc(C)c2)n1 (configuration not stated)
EC50 [2]: 600 nM | selectivity ratio [3]: > 578

Structure (SMILES): Cc1c(O)nc(SC2CCCC2)nc1Cc1ccccc1
EC50 [2]: 800 nM | selectivity ratio [3]: > 555

Structure (SMILES): Oc1cc(Cc2ccccc2)nc(SC2CCCCC2)n1
EC50 [2]: 800 nM | selectivity ratio [3]: > 412

Structure (SMILES): CCC(C)Sc1nc(O)cc(Cc2c(Cl)cccc2Cl)n1 (configuration not stated)
CC50 at 72 h [4]: > 200000 nM | EC50 [5]: 140 nM | selectivity ratio [6]: > 1430 | CC50 [7]: > 200000 nM

Structure (SMILES): CCC(C)Sc1nc(O)c(C)c(Cc2c(Cl)cccc2Cl)n1 (configuration not stated)
CC50 at 72 h [4]: > 200000 nM | EC50 [5]: 50 nM | selectivity ratio [6]: > 4000 | CC50 [7]: > 200000 nM

EC50 [8]: 45 nM
Structure (SMILES): CCc1c(Cc2ccccc2)nc(SCC(=O)c2ccc(OC)cc2)[nH]c1=O
CC50 [9]: 178000 nM | EC50 [10]: 18900 nM

EC50 [8]: 30 nM
Structure (SMILES): COc1ccc(C(=O)CSc2nc(Cc3ccccc3)c(C(C)C)c(=O)[nH]2)cc1
CC50 [9]: 203000 nM | EC50 [10]: 13400 nM

EC50 [11]: 2 nM
Structure (SMILES): COc1ccc(/C=C/CSc2nc(C(C)c3c(F)cccc3F)c(C)c(=O)[nH]2)cc1 (configuration not stated)

EC50 [11]: 2 nM
Structure (SMILES): CCc1c(C(C)c2c(F)cccc2F)nc(SC/C=C/c2ccc(OC)cc2)[nH]c1=O (configuration not stated)

EC50 [11]: 4 nM
Structure (SMILES): CCc1c(C(C)c2c(F)cccc2F)nc(SC/C=C/c2ccc([N+](=O)[O-])cc2)[nH]c1=O (configuration not stated)

Structure (SMILES): COc1ccc(CSc2nc(C(C)c3c(Cl)cccc3Cl)c(C)c(=O)[nH]2)cc1 (configuration not stated)
EC50 [11]: 1 nM | EC50 [12]: 5720 nM

EC50 [11]: 2 nM
Structure (SMILES): COc1ccc(CSc2nc(C(C)c3c(F)cccc3F)c(C)c(=O)[nH]2)cc1 (configuration not stated)

Structure (SMILES): Cc1c(C(C)c2c(F)cccc2F)nc(SCc2ccc([N+](=O)[O-])cc2)[nH]c1=O (configuration not stated)
EC50 [11]: 3 nM | EC50 [12]: 650 nM

Structure (SMILES): Cc1c(O)nc(SCC(C)C)nc1Cc1ccccc1
EC50 [2]: 800 nM | selectivity ratio [3]: 162

Structure (SMILES): CSCSc1nc(O)c(C)c(Cc2ccccc2)n1
EC50 [1]: 1200 nM

Structure (SMILES): Cc1cccc(Cc2nc(SC3CCCC3)nc(O)c2C)c1
EC50 [2]: 600 nM | selectivity ratio [3]: > 530

Structure (SMILES): CSCSc1nc(O)c(C(C)C)c(Cc2ccccc2)n1
EC50 [1]: 40 nM

Structure (SMILES): CCc1c(O)nc(SCSC)nc1Cc1ccccc1
EC50 [1]: 800 nM

EC50 [11]: 7 nM
Structure (SMILES): Cc1c(C(C)c2c(F)cccc2F)nc(SCc2ccc(C#N)cc2)[nH]c1=O (configuration not stated)

Structure (SMILES): Cc1c(C(C)c2c(F)cccc2F)nc(NC(C)C)[nH]c1=O (configuration not stated)
CC50 [13]: > 200000 nM | EC50 [14]: 20 nM

Structure (SMILES): Cc1c(Cc2c(Cl)cccc2Cl)nc(SCc2cn(Cc3ccc(S(N)(=O)=O)cc3)nn2)[nH]c1=O
CC50 [15]: 95500 nM

Structure (SMILES): Cc1c(Cc2c(Cl)cccc2Cl)nc(SCC(=O)Nc2ccc(F)c(F)c2)[nH]c1=O
EC50 [8]: 690 nM | CC50 [9]: > 265000 nM | selectivity ratio [3]: > 387

Structure (SMILES): Cc1c(Cc2c(Cl)cccc2Cl)nc(SCC(=O)Nc2ccc(Br)cc2)[nH]c1=O
EC50 [8]: 180 nM | CC50 [9]: > 243000 nM | selectivity ratio [3]: > 1330

Structure (SMILES): Cc1c(Cc2c(Cl)cccc2Cl)nc(SCC(=O)Nc2ccc(Cl)cc2)[nH]c1=O
EC50 [8]: 320 nM | CC50 [9]: > 266000 nM | selectivity ratio [3]: > 836

Structure (SMILES): Cc1c(Cc2c(Cl)cccc2Cl)nc(SCC(=O)Nc2ccc([N+](=O)[O-])cc2)[nH]c1=O
EC50 [8]: 990 nM | CC50 [9]: 45800 nM | selectivity ratio [3]: 264

Structure (SMILES): CC(C)CCSc1nc(Cc2c(F)cccc2I)cc(=O)[nH]1
CC50 at 72 h [4]: > 200000 nM | EC50 [5]: 50 nM | selectivity ratio [6]: > 4000 | CC50 [7]: > 200000 nM

Structure (SMILES): CCC(C)Sc1nc(Cc2c(F)cccc2I)cc(=O)[nH]1 (configuration not stated)
CC50 at 72 h [4]: > 200000 nM | EC50 [5]: 50 nM | selectivity ratio [6]: > 4000 | CC50 [7]: > 200000 nM

Structure (SMILES): C#CCOC(=O)[C@H](C)NP(=O)(Oc1ccccc1)Oc1nc(N(C)C)nc(C(C)c2c(F)cccc2F)c1C (some centres not stated)
EC50 [16]: 3 nM | EC50 [17]: 500 nM

Structure (SMILES): CCOC(=O)[C@H](C)NP(=O)(Oc1ccccc1)Oc1nc(N(C)C)nc(C(C)c2c(F)cccc2F)c1C (some centres not stated)
EC50 [16]: 6 nM | EC50 [17]: 1000 nM
